Target: T1, OATP1B1 (Homo sapiens, UniProt Q9Y6L6)
T1 construct: host or cells: HEK293
T1 sequence (Q9Y6L6 1-691): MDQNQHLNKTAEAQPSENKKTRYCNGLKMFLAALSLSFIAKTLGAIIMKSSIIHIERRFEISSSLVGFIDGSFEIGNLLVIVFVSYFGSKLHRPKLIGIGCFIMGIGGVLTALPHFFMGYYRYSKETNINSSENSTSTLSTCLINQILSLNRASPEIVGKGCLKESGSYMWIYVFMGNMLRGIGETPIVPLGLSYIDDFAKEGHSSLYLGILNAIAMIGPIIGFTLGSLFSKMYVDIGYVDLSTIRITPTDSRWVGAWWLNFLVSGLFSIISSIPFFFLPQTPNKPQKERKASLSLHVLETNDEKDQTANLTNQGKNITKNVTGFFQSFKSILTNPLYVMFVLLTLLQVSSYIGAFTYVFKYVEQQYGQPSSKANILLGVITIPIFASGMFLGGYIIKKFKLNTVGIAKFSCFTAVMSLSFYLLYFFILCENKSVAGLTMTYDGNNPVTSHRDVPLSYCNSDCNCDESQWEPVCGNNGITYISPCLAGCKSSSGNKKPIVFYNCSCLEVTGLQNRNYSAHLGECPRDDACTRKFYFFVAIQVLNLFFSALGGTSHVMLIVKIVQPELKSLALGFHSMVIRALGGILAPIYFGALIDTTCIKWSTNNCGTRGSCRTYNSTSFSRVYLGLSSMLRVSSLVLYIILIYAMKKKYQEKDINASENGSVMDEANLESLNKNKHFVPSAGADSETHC
Assay: [14C]fluciclovine uptake by OATP1B1-expressing cells
Type: in vitro ADME
Details: OATP1B1 cells vs mock cells
Method: For the SLC transporter experiments, Mock Flp-in-293 cells (Flp/mock), OAT1-expressing Flp-in-293 cells (Flp/OAT1), mock HEK293 cells (HEK/mock), and OATP1B3-expressing HEK293 cells (HEK/OATP1B3) were obtained from Kanazawa University (Ishikawa, Japan). Briefly, Flp-in-293 and HEK293 cells were transfected with the appropriate plasmid DNA and selected using antibiotics (hygromycin or G-418). All cell lines were cultured in DMEM (Life Technologies Japan) supplemented with 10% (v/v) fetal bovine serum (American Type Culture Collection) and antibiotics (100 U/mL penicillin and 100 μg/mL streptomycin (Life Technologies Japan) for mock cells, 0.2 mg/mL hygromycin for Flp/OAT1 cells, and 1.2 mg/mL G-418 (Roche Diagnostics K.K., Tokyo, Japan) for HEK/OATP1B3 cells) at 37 °C under an atmosphere containing 5% CO2. […]
The experiments were performed as described previously, with minor modifications. […] The cells were lysed in 0.3 mL of 0.1N NaOH at room temperature, after which the radioactivity of each aliquot was measured as described above. The protein concentration of the cell lysate was determined with a VersaMax microplate reader (Molecular Devices Japan K.K., Osaka, Japan) or SpectraMax i3x (Molecular Devices Japan K.K.; only for OATP1B1) using a BCA Protein Assay Kit (Thermo Fisher Scientific, Kanagawa, Japan). Tracer uptake was expressed as pmol/mg protein. […]

Q: Which drug transporter-mediated uptake does the source give for `N[14C]1(C(=O)O)CC(F)C1` (stereo not drawn) [[^14C]fluciclovine, trans-1-amino-3-fluoro[1-^14C]cyclobutanecarboxylic acid] here?
A: The drug transporter-mediated uptake was “negligible”.

— publication PMC5085761 (International Journal of Molecular Sciences, 2016)
